Test results reported in US9108983B2, “Pyrrole compounds, a process for their preparation and pharmaceutical compositions containing them” (LES LABORATOIRES SERVIER, priority 2013, dated 2015).
Counter-ions that a name gives are not always drawn.

Assays:
[1] = test system: RS4;11 leukaemia tumour line; test: In vitro cytotoxicity (Microculture Tetrazolium Assay); type: cell-based; settings: Homo sapiens, RS4-11, 48 h, RS4;11 cells, exposed for 48 hours, cell viability; read-out: IC50 (nM) MTT RS4;11
Procedure: The cytotoxicity studies were carried out on the RS4;11 leukaemia tumour line.
The cells are distributed onto microplates and exposed to the test compounds for 48 hours.
The cell viability is then quantified by a colorimetric assay, the Microculture Tetrazolium Assay (Cancer Res., 1987, 47, 939-942).

[2] = test system: cleaved (activated) form of caspase 3 in RS4;11 leukaemia cell xenograft tumours; test: Quantification of the cleaved form of caspase 3 in vivo (MSD ELISA); design: species or system mice (SCID strain); settings: Mus musculus, cleaved caspase 3 MSD test, oral route, tumour removed after 2 hours, read-out: Activation factor ± SEM (versus control)
Procedure: The ability of the compounds of the invention to activate caspase 3 is evaluated in a xenograft model of RS4;11 leukaemia cells.
1×10^7 RS4;11 cells are grafted sub-cutaneously into immunosuppressed mice (SCID strain). 25 to 30 days after the graft, the animals are treated orally with the various compounds. After treatment, the tumour masses are recovered and lysed, and the cleaved (activated) form of caspase 3 is quantified in the tumour lysates.
The quantification is carried out using the “Meso Scale Discovery (MSD) ELISA platform” test, which specifically assays the cleaved form of caspase 3. It is expressed in the form of an activation factor corresponding to the ratio between the quantity of cleaved caspase 3 in the treated mice divided by the quantity of cleaved caspase 3 in the control mice.

Bcl-2 protein = Bcl-2 protein (histag-Bcl-2, UniProtKB P10415) (Homo sapiens (Human), UniProt P10415); test: Inhibition of Bcl-2 by the fluorescence polarisation technique; type: binding; settings: incubation for 2 hours, read-out: IC50 (nM) Bcl-2 FP
Chain of Bcl-2 protein (P10415 whole entry): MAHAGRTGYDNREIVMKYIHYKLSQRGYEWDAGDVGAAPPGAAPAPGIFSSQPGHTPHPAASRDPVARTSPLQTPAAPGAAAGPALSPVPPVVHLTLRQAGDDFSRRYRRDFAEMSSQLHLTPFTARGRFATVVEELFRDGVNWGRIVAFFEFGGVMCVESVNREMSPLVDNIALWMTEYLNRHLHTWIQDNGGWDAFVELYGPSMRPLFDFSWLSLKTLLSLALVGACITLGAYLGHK
In short: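 Fluorescence polarisation competition: His-tagged Bcl-2 (2.50×10^−8 M final) with fluorescein-labelled peptide (1.00×10^−8 M final) in 10 mM Hepes, 150 mM NaCl, 0.05% Tween20, pH 7.4. Increasing compound concentrations were added. Polarisation was read after 2 h incubation.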

SMILES	IC50 (Bcl-2 protein) [nM]	IC50 [1] [nM]	fold induction at 25 mg/kg [2]
Cc1c(C(=O)N(c2ccc(O)cc2)c2cnn(C)c2)cc(-c2cc3c(cc2C(=O)N2Cc4ccccc4C[C@H]2CN2CCOCC2)OCO3)n1C [Example 47, N-(4-Hydroxyphenyl)-1,2-dimethyl-N-(1-methyl-1H-pyrazol-4-yl)-5-(6-{[(3S)-3-(morpholin-4-ylmethyl)-3,4-dihydroisoquinolin-2(1H)-yl]carbonyl}-1,3-benzodioxol-5-yl)-1H-pyrrole-3-carboxamide hydrochloride]	5.9	44.5	12.3 ± 2.4
Cc1c(C(=O)N(c2ccc(O)cc2)c2cc(C#N)n(C)c2)cc(-c2cc(F)ccc2C(=O)N2Cc3ccccc3C[C@H]2CN2CCOCC2)n1C [Example 230, N-(5-Cyano-1-methyl-1H-pyrrol-3-yl)-5-(5-fluoro-2-{[(3S)-3-(morpholin-4-ylmethyl)-3,4-dihydroisoquinolin-2(1H)-yl]carbonyl}phenyl)-N-(4-hydroxyphenyl)-1,2-dimethyl-1H-pyrrole-3-carboxamide hydrochloride]	5.1	18.3	42.2 ± 9.3
Cc1c(C(=O)N(c2ccc(O)cc2)c2cnc3c(c2)CCN3C)cc(-c2cc(Cl)ccc2C(=O)N2Cc3ccccc3C[C@H]2CN2CCOCC2)n1C [Example 388, 5-(5-Chloro-2-{[(3S)-3-(morpholin-4-ylmethyl)-3,4-dihydroisoquinolin-2(1H)-yl]carbonyl}phenyl)-N-(4-hydroxyphenyl)-1,2-dimethyl-N-(1-methyl-2,3-dihydro-1H-pyrrolo[2,3-b]pyridin-5-yl)-1H-pyrrole-3-carboxamide dihydrochloride]	3.6	16.5	85.7 ± 3.7
Cc1c(C(=O)N(c2ccccc2)c2ccc(O)cc2)cc(-c2cc(Cl)ccc2C(=O)N2CCc3ccccc3C2)n1C [Example 467, 5-(5-Chloro-2-{[3,4-dihydroisoquinolin-2(1H)-yl]carbonyl}phenyl)-N-(4-hydroxyphenyl)-1,2-dimethyl-N-phenyl-1H-pyrrole-3-carboxamide]	19.2	188	–

Second part, led by results:

IC50 (Bcl-2 protein) [nM]	SMILES	IC50 [1] [nM]	fold induction at 25 mg/kg [2]
4	Cc1c(C(=O)N(c2ccc(O)cc2)c2cnn(C)c2)cc(-c2cc(Cl)ccc2C(=O)N2Cc3ccccc3C[C@H]2CN2CCOCC2)n1C [Example 25, 5-(5-Chloro-2-{[(3S)-3-(morpholin-4-ylmethyl)-3,4-dihydroisoquinolin-2(1H)-yl]carbonyl}phenyl)-N-(4-hydroxyphenyl)-1,2-dimethyl-N-(1-methyl-1H-pyrazol-4-yl)-1H-pyrrole-3-carboxamide hydrochloride]	33.3	45.7 ± 2
6.1	Cc1c(C(=O)N(c2ccc(O)cc2)c2cnc3c(ccn3C)c2)cc(-c2cc(Cl)ccc2C(=O)N2Cc3ccccc3C[C@H]2CN2CCOCC2)n1C [Example 71, 5-(5-Chloro-2-{[(3S)-3-(morpholin-4-ylmethyl)-3,4-dihydroisoquinolin-2(1H)-yl]carbonyl}phenyl)-N-(4-hydroxyphenyl)-1,2-dimethyl-N-(1-methyl-1H-pyrrolo[2,3-b]pyridin-5-yl)-1H-pyrrole-3-carboxamide hydrochloride]	12.9	46.8 ± 16.1
